Values after ≈ are worked out from the molar mass of the structure shown. Where two headings read alike, the source gives them in different places.
Experiments:
[1] = Kinetic solubility in aqueous media C.3.a (nephelometer); assay type: physicochemical; conditions: aqueous buffer, kinetic from dmso stock; phosphate citrate buffer pH 7.4, turbidity; read-out: Kinetic solubility score (C.3.a)
Experimental: The solubility of a compound measures the ability of a compound to stay in solution. In a first method the ability of a compound to stay in aqueous solution upon dilution (see example C.3.a) is measured. DMSO-stock solutions are diluted with a single aqueous buffer solvent in 3 consecutive steps. For every dilution turbidity is measured with a nephelometer.
In the first dilution step, 10 μl of a concentrated stock-solution of the active compound, solubilized in DMSO (5 mM), was added to 100 μl phosphate citrate buffer pH 7.4 and mixed. In the second dilution step, an aliquot (20 μl) of the first dilution step was further dispensed in 100 μl phosphate citrate buffer pH 7.4 and mixed. Finally, in the third dilution step, a sample (20 μl) of the second dilution step was further diluted in 100 μl phosphate citrate buffer pH 7.4 and mixed. All dilutions were performed in 96-well plates. Immediately after the last dilution step the turbidity of the three consecutive dilution steps were measured with a nephelometer. Dilution was done in triplicate for each compound to exclude occasional errors. Based on the turbidity measurements a ranking is performed into 3 classes. Compounds with high solubility obtained a score of 3 and for this compounds the first dilution is clear. Compounds with medium solubility obtained a score of 2. […]

[2] = target: histone deacetylase (HeLa nuclear extracts); test: In vitro assay for inhibition of histone deacetylase with fluorescent-labelled substrate (Fluor de Lys); assay type: biochemical
From the text: The in vitro assay for inhibition of histone deacetylase (see example C.1) measures the inhibition of HDAC enzymatic activity obtained with the compounds of formula (I).
The HDAC Fluorescent Activity Assay/Drug Discovery Kit of Biomol (cat. No: AK-500-0001) was used. The HDAC Fluorescent Activity Assay is based on the Fluor de Lys (Fluorogenic Histone deAcetylase Lysyl) substrate and developer combination. The Fluor de Lys substrate, comprises an acetylated lysine side chain. Deacetylation of the substrate sensitizes the substrate so that, in the second step, treatment with the Fluor de Lys developer produces a fluorophore.
HeLa nuclear extracts (supplier: Biomol) were incubated at 60 μg/ml with 75 μM of substrate. The Fluor de Lys substrate was added in a buffer containing 25 mM Tris, 137 mM NaCl, 2.7 mM KCl and 1 mM MgCl2.6H2O at pH 7.4. After 30 min, 1 volume of the developer was added. The fluorophore was excited with 355 nm light and the emitted light (450 nm) was be detected on a fluorometric plate reader.
For each experiment, controls (containing HeLa nuclear extract and buffer), a blank incubation (containing buffer but no HeLa nuclear extract) and samples (containing compound dissolved in DMSO and further diluted in buffer and HeLa nuclear extract) were run in parallel. In first instance, compounds were tested at a concentration of 10^−5M. […] All sample were tested 4 times. In each test the blank value was subtracted from both the control and the sample values. The control sample represented 100% of substrate deactylation. For each sample the fluorescence was expressed as a percentage of the mean value of the controls. […] Herein the effects of test compounds are expressed as pIC50 (the negative log value of the IC50-value) (see Table F-2).

[3] = system: A2780 ovarian carcinoma cells; test: Antiproliferative activity on A2780 cells (MTT); assay type: cell-based; conditions: Homo sapiens, 96 h, four days of incubation, read-out: Cellular activity pIC50 C.2 (converted)
Experimental: Cellular activity of the compounds of formula (I) was determined on A2780 tumour cells using a colorimetric assay for cell toxicity or survival (Mosmann Tim, Journal of Immunological Methods 65: 55-63, 1983)(see example C.2).
All compounds tested were dissolved in DMSO and further dilutions were made in culture medium. Final DMSO concentrations never exceeded 0.1% (v/v) in cell proliferation assays. Controls contained A2780 cells and DMSO without compound and blanks contained DMSO but no cells. MTT was dissolved at 5 mg/ml in PBS. A glycine buffer comprised of 0.1 M glycine and 0.1 M NaCl buffered to pH 10.5 with NaOH (1 N) was prepared (all reagents were from Merck).
The human A2780 ovarian carcinoma cells (a kind gift from Dr. T. C. Hamilton [Fox Chase Cancer Centre, Pennsylvania, USA]) were cultured in RPMI 1640 medium supplemented with 2 mM L-glutamine, 50 μg/ml gentamicin and 10% fetal calf serum. Cells were routinely kept as monolayer cultures at 37° C. in a humidified 5% CO2 atmosphere. Cells were passaged once a week using a trypsin/EDTA solution at a split ratio of 1:40. All media and supplements were obtained from Life Technologies. Cells were free of mycoplasma contamination as determined using the Gen-Probe Mycoplasma Tissue Culture kit (supplier: BioMérieux).
Cells were seeded in NUNC™ 96-well culture plates (Supplier: Life Technologies) and allowed to adhere to the plastic overnight. Densities used for plating were 1500 cells per well in a total volume of 200 μl medium. After cell adhesion to the plates, medium was changed and drugs and/or solvents were added to a final volume of 200 μl. Following four days of incubation, medium was replaced by 200 μl fresh medium and cell density and viability was assessed using an MTT-based assay. To each well, 25 μl MTT solution was added and the cells were further incubated for 2 hours at 37° C. The medium was then carefully aspirated and the blue MTT-formazan product was solubilized by addition of 25 μl glycine buffer followed by 100 μl of DMSO. […] Within an experiment, the results for each experimental condition are the mean of 3 replicate wells. For initial screening purposes, compounds were tested at a single fixed concentration of 10^−6 M. For active compounds, the experiments were repeated to establish full concentration-response curves. For each experiment, controls (containing no drug) and a blank incubation (containing no cells or drugs) were run in parallel. The blank value was subtracted from all control and sample values. For each sample, the mean value for cell growth (in absorbance units) was expressed as a percentage of the mean value for cell growth of the control. […] Herein the effects of test compounds are expressed as pIC50 (the negative log value of the IC50-value)(see Table F-2).

[4] = Solubility at pH 2.3 (chemiluminescent nitrogen detector); assay type: physicochemical; conditions: pH 2.3, aqueous buffer; read-out: Solubility C.3.c. pH = 2.3
From the text: In a third method the solubility of a compound at different pH's can be measured with the use of a Chemiluminescent Nitrogen Detector (see example C.3.c).
The solubility of a compound, at pH 2.3, can also be measured with the use of a chemiluminescent nitrogen detector (see Table F-2).

[5] = not given; remark: listed apart in the source
[6] = system: p21 promoter; test: p21 induction in vivo method C.6.c (reporter tumour fluorescence in nude mice); conditions: 20-40 mpk daily during 6 days, orally or intraveinally, ranked inactive, weaker, identical or better than R306465
Experimental: The last method is an in vivo method wherein mice are used for screening the pharmaceutical activity of a compound. The above described stably transformed tumour cells can be administered to mice in an amount sufficient to effect production of a tumour. After the tumour cells had sufficient time to form a tumour, a potentially active compound can be administered to the animals and the effect of said compound on the tumour cells is evaluated by measuring the expression of the reporter gene. Incubation with pharmaceutical active compounds will result in an increase of reporter gene expression compared to the control levels (see example C.6.c.)
A selected clone was injected subcutaneous (10^7 cells/200 μl) into the flank of nude mice and a calliper measurable tumour was obtained after 12 days. From day 12 on, animals were dosed, orally or intraveinally, daily during 6 days with solvent and 20-40 mpk compound (4-10 animals each). Tumours were evaluated for fluorescence by the in-house developed Automated Whole Body Imaging System (Fluorescent stereomicroscope type Olympus® SZX12 equipped with a GFP filter and coupled to a CCD camera type JAI® CV-M90 controlled by a software package based on the IMAQ Vision Software from National Instruments®). As reference, compound R306465 (WO03/76422) was used.

[7] = Metabolic stability with rat hepatocytes cell culture C.5.b; assay type: in vitro ADME; conditions: male, Sprague Dowley, rat hepatocyte cell cultures, read-out: in vitro half-life
From the text: Metabolism of drugs means that a lipid-soluble xenobiotic or endobiotic compound is enzymatically transformed into (a) polar, water-soluble, and excretable metabolite(s). The major organ for drug metabolism is the liver. […] However, some metabolites may have enhanced activity or toxic effects. Thus drug metabolism may include both “detoxication” and “toxication” processes. One of the major enzyme systems that determine the organism's capability of dealing with drugs and chemicals is represented by the cytochrome P450 monooxygenases, which are NADPH dependent enzymes. Metabolic stability of compounds can be determined in vitro with the use of subcellular human tissue (see example C.5.a.). Here metabolic stability of the compounds is expressed as % of drug metabolised after 15 minutes incubation of these compounds with microsomes. Quantitation of the compounds was determined by LC-MS analysis. Metabolic stability of compounds can also be determined by calculating the half live of compounds in rat hepatocyte cells (see example C.5.b.).
Rat hepatocytes were isolated from male Sprague Dowley rats. The compounds were dissolved to a 5 mM stock solution in 100% DMSO and incubated at a final concentration of 5 μM for 0, 15, 30, 60 and 120 min with rat hepatocyte cell cultures (0.5 million viable cells/0.5 ml) using 24-well plates.
Samples were prepared for LC-MS by addition of two volumes of DMSO. The samples were thoroughly shaken and subsequently centrifuged at 900 g for 10 min (room temperature). All experiments were performed in triplicate. Of the resulting supernatant 50 μl was analysed by LC-MS.
For LC-MS, elution of samples was performed on a Hypersil BDS C18 column (50×4.6 mm, 5 μm, Thermohypersil, UK). […]
Total injection volume of samples was 50 μL. […] The mass spectrometer was operated in positive ion mode in SIM adjusted to the mass of M+H with a scan width of 1 Da for quantification purposes. […] The metabolic stability of compounds in rat hepatocytes was expressed as in vitro half-lives. […]

Row | Enzymatic activity pIC50 C.1 [2] | IC50 [3] [nM] | melting point [°C] | solubility [4] [µg/mL] | half-life at 5 μM [7] [min] | Structure (SMILES) | further results
1 | 8.1 | 251 | 206 | 2100 (≈ 5.3 mM) | – | Cn1nnc2ccc(CNCC3CCN(c4ncc(C(=O)NO)cn4)CC3)cc21 [Compound 2] | solubility kinetic [1]: > 455 µM
2 | – | – | – | – | – | CCCO [propanol] | % metabolism ([5]; 15 min incubation with microsomes, compound 5 μM): 25%
3 | 8.4 | 20 | 197 | 2500 (≈ 6.32 mM) | – | Cn1nc(CNCC2CCN(c3ncc(C(=O)NO)cn3)CC2)c2ccccc21 [Compound 1] | tumour fluorescence ranked against R306465 [6]: better than R306465
4 | 9.4 | 79.4 | – | 2200 (≈ 5.77 mM) | 30 to 55 | O=C(NO)c1cnc(N2CCC(CNCc3n[nH]c4ccccc34)CC2)nc1 [Compound 22] | –
5 | – | – | – | – | – | COc1cc(N)c(Cl)cc1C(=O)NC1CCN(CCCOc2ccc(F)cc2)CC1OC (centres unmarked) [Cisapride] | % metabolism ([5]; human, 15 min, 5 μM): 45%
6 | – | – | – | – | 8 | O=C(NO)c1cnc(N2CCN(S(=O)(=O)c3ccc4ccccc4c3)CC2)nc1 [Compound R306465, reference compound] | –

— patent US7834011B2, “Heterocyclylalkyl derivatives as novel inhibitors of histone deacetylase” (Janssen Pharmaceutica N.V., priority 2006, dated 2010)
